The results in this text go back to ChEMBL document CHEMBL1671815, “A practical use of ligand efficiency indices out of the fragment-based approach: ligand efficiency-guided lead identification of soluble epoxide hydrolase inhibitors” (J Med Chem, 2011).

As usually defined, the IC50 is the concentration at which inhibition is half-maximal. A low value points to inhibition by little substance. In general, solubility refers to the concentration that dissolves in the medium under given conditions. Read a low solubility as a poorly soluble substance.

Data set [1] deals with T1, Bifunctional epoxide hydrolase 2 (Homo sapiens, UniProt P34913).
T1 sequence (P34913 whole entry): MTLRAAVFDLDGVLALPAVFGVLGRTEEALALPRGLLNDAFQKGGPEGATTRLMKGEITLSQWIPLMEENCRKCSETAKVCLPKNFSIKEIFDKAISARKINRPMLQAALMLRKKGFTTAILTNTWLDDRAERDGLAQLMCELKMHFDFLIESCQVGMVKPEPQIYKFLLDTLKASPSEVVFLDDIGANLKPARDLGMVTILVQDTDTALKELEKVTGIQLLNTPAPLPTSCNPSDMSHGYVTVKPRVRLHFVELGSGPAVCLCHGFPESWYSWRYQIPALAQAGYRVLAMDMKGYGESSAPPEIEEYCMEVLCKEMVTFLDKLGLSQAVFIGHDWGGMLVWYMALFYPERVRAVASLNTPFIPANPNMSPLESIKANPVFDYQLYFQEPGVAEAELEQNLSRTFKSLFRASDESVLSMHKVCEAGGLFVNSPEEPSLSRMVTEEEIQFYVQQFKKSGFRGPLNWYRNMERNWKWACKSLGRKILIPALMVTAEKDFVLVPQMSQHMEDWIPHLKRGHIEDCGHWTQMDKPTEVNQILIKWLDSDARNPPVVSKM
Description: Inhibition of human soluble epoxide hydrolase in cell free system.

The nature of data set [2]: Aqueous solubility of the compound at pH 7.4. In kind it is physicochemical.
Data set [3] has as its target T2, Bifunctional epoxide hydrolase 2 (Rattus norvegicus, UniProt P80299).
T2 sequence (P80299 whole entry): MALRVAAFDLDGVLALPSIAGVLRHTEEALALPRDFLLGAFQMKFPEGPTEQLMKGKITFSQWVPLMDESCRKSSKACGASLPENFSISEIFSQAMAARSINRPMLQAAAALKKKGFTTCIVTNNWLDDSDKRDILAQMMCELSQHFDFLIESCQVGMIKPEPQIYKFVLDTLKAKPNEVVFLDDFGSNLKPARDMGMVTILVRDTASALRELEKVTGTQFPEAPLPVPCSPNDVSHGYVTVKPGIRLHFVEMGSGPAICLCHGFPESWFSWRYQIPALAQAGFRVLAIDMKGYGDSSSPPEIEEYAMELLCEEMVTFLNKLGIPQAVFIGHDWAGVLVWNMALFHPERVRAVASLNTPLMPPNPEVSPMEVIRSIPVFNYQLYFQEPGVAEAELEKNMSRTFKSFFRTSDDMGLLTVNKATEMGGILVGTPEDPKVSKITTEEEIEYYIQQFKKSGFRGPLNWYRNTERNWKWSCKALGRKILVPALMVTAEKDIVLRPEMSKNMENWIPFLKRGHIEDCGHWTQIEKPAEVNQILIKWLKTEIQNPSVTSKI
Description: Inhibition of rat soluble epoxide hydrolase in cell free system.

The target of the next data set is Cytochrome P450 2C19 (Homo sapiens, UniProt P33261). Nature of the data set: Inhibition of CYP2C19. In kind it is ADME.
Data set [4] has as its system Liver microsomes. Nature of the data set: Intrinsic clearance in human liver microsome measured per mg of protein. The format is ADME. For orientation: Microsomes from liver hold many membrane-bound enzymes, among them those of drug oxidation.
Data set [5] concerns Liver microsomes. Description: Intrinsic clearance in rat liver microsome measured per mg of protein. In kind it is ADME.
Data set [6] has as its target T1, Bifunctional epoxide hydrolase 2. Description: Inhibition of soluble epoxide hydrolase in human HepG2 cells after 30 mins. The format is cell-based.
In another data set the test system is HepG2. Nature of the data set: Cytotoxicity against human HepG2 cells up to 100 uM. In kind it is cell-based.
The target in a further data set is T3, Cytochrome P450 1A2 (Homo sapiens, UniProt P05177).
T3 sequence (P05177 whole entry): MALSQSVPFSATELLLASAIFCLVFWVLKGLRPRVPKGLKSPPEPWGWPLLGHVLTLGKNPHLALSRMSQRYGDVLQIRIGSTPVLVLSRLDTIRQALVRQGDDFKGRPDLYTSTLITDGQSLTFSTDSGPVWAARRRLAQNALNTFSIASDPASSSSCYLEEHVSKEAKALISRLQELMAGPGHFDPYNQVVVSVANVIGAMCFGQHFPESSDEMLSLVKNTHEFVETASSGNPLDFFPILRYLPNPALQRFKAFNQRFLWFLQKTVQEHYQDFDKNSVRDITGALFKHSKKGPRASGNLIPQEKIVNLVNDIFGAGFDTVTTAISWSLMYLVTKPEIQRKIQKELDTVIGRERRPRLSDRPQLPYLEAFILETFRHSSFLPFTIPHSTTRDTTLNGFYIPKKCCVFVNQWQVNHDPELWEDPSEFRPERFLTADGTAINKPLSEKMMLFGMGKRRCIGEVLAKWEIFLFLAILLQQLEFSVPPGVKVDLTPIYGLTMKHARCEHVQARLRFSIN
Description: Inhibition of CYP1A2. In kind it is ADME.

Bounds are passed on as bounds.

Sequence of Cytochrome P450 2C19 (P33261 whole entry): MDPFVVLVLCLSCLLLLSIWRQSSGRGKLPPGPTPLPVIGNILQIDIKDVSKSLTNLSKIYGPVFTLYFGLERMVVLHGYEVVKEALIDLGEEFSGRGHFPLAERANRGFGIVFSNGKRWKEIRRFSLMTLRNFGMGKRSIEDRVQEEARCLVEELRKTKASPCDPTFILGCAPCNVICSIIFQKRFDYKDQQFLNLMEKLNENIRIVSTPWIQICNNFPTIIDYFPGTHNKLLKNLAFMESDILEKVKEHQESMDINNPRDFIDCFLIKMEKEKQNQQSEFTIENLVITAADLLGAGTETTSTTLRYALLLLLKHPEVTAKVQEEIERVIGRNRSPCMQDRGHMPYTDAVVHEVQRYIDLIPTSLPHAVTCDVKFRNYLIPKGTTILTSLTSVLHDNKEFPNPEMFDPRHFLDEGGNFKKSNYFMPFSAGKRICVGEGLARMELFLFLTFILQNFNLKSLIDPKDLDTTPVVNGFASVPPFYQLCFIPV

For the molecule `COc1cccc2c1CC(C(=O)N[C@H]1C[C@@H]1c1ccccc1)CC2` (mixture of isomers), the IC50 is 6.46 nM in data set [1], 3.02 nM in data set [3], < 10000 nM on Cytochrome P450 2C19 and 4.68 nM in data set [6]. In addition, in [2], the solubility was < 1 µg/mL. Further, the CL in the data set with Liver microsomes [4] and in the data set on Liver microsomes [5] was > 100 µL/min/mg throughout.

In the case of `CC(C)c1noc(C2CCN(C(=O)N[C@H]3C[C@@H]3c3ccccc3)CC2)n1` (racemic), the Activity result in the data set on HepG2 is reported as “Non-toxic”. Moreover, in [3], the IC50 came out at 13 nM.

As to `O=C(N[C@H]1C[C@@H]1c1ccccc1)c1ccc2nonc2c1` (racemic), the IC50 was 61.7 nM in data set [1], 240 nM in data set [3] and < 10000 nM on Cytochrome P450 2C19. Besides, in data set [2], the solubility is < 1 µg/mL.

Take `Cc1nc2cc(NC(=O)N[C@H]3C[C@@H]3c3ccccc3)ccc2o1` (racemic): the values for the IC50 in [1], in data set [3] and in [6] were 39.8 nM, 20 nM and 81.3 nM, respectively. Moreover, in data set [2], the solubility is < 1 µg/mL. Further, the CL with Liver microsomes [4] and in the data set on Liver microsomes [5] was > 100 µL/min/mg each time.

As to `CN(C)c1ccc(CNC(=O)N[C@H]2C[C@@H]2c2ccccc2)cc1` (racemic), the IC50 was 30.2 nM in data set [1], < 10000 nM against Cytochrome P450 1A2 and < 10000 nM on Cytochrome P450 2C19. Further, the CL in the data set with Liver microsomes [5] was > 100 µL/min/mg.

Regarding `O=C(NC1CCN(c2ccccc2)CC1)N[C@H]1C[C@@H]1c1ccccc1` (racemic), the IC50 in data set [1] was 2.29 nM; in data set [3], 1.7 nM; in data set [6] it was 7.94 nM. Moreover, the solubility in [2] is < 1 µg/mL. Moreover, the CL in the data set on Liver microsomes [5] is > 100 µL/min/mg.
